{
  "source": "ChEMBL document CHEMBL1127517",
  "about": "(J Med Chem, 1994)",
  "key": {"[1]": {"system": "Rattus norvegicus", "assay": "Distribution of radio activity in tissues of unfasted male rats was measured at 60 min of time in blood after intravenous administration", "format": "ADME, organism-based", "conditions": "in vivo, 1 h"}, "[2]": {"system": "Rattus norvegicus", "assay": "Distribution of radio activity in tissues of unfasted male rats was measured at 60 min of time in brain after intravenous administration", "format": "ADME, organism-based", "conditions": "in vivo, 1 h"}, "[3]": {"system": "Rattus norvegicus", "assay": "Distribution of radio activity in tissues of unfasted male rats was measured at 60 min of time in heart after intravenous administration", "format": "ADME, organism-based", "conditions": "in vivo, 1 h"}, "[4]": {"system": "Rattus norvegicus", "assay": "Distribution of radio activity in tissues of unfasted male rats was measured at 60 min of time in kidney after intravenous administration", "format": "ADME, organism-based", "conditions": "in vivo, 1 h"}, "[5]": {"system": "Rattus norvegicus", "assay": "Distribution of radio activity in tissues of unfasted male rats was measured at 60 min of time in liver after intravenous administration", "format": "ADME, organism-based", "conditions": "in vivo, 1 h"}, "[6]": {"system": "Rattus norvegicus", "assay": "Distribution of radio activity in tissues of unfasted male rats was measured at 60 min of time in lung after intravenous administration", "format": "ADME, organism-based", "conditions": "in vivo, 1 h"}, "[7]": {"system": "Rattus norvegicus", "assay": "Distribution of radio activity in tissues of unfasted male rats was measured at 60 min of time in muscle after intravenous administration", "format": "ADME, organism-based, Muscle tissue", "conditions": "in vivo, 1 h"}, "[8]": {"system": "Rattus norvegicus", "assay": "Distribution of radio activity in tissues of unfasted male rats was measured at 2 min of time in thyroid after intravenous administration", "format": "ADME, organism-based, Thyroid gland", "conditions": "in vivo"}, "[9]": {"system": "Rattus norvegicus", "assay": "Distribution of radio activity in tissues of unfasted male rats was measured at 30 min of time in blood after intravenous administration", "format": "ADME, organism-based", "conditions": "in vivo, 0.5 h"}, "[10]": {"system": "Rattus norvegicus", "assay": "Distribution of radio activity in tissues of unfasted male rats was measured at 30 min of time in brain after intravenous administration", "format": "ADME, organism-based", "conditions": "in vivo, 0.5 h"}, "[11]": {"system": "Rattus norvegicus", "assay": "Distribution of radio activity in tissues of unfasted male rats was measured at 30 min of time in heart after intravenous administration", "format": "ADME, organism-based", "conditions": "in vivo, 0.5 h"}, "[12]": {"system": "Rattus norvegicus", "assay": "Distribution of radio activity in tissues of unfasted male rats was measured at 60 min of time in skin after intravenous administration", "format": "ADME, organism-based", "conditions": "in vivo, 1 h"}, "[13]": {"system": "Rattus norvegicus", "assay": "Distribution of radio activity in tissues of unfasted male rats was measured at 60 min of time in spleen after intravenous administration", "format": "ADME, organism-based", "conditions": "in vivo, 1 h"}, "[14]": {"system": "Rattus norvegicus", "assay": "Distribution of radio activity in tissues of unfasted male rats was measured at 60 min of time in thyroid after intravenous administration", "format": "ADME, organism-based, Thyroid gland", "conditions": "in vivo, 1 h"}, "[15]": {"system": "Rattus norvegicus", "assay": "Distribution of radio activity in tissues of unfasted male rats was measured as regional uptake at 120 min of time in cortex after intravenous administration", "format": "ADME, organism-based", "conditions": "in vivo, 2 h"}, "[16]": {"system": "Rattus norvegicus", "assay": "Distribution of radio activity in tissues of unfasted male rats was measured as regional uptake at 120 min of time in hippocampus after intravenous administration", "format": "ADME, organism-based", "conditions": "in vivo, 2 h"}, "[17]": {"system": "Rattus norvegicus", "assay": "Distribution of radio activity in tissues of unfasted male rats was measured as regional uptake at 120 min of time in striatum after intravenous administration", "format": "ADME, organism-based", "conditions": "in vivo, 2 h"}, "[18]": {"system": "Rattus norvegicus", "assay": "Distribution of radio activity in tissues of unfasted male rats was measured as regional uptake at 2 min of time in ST/CB after intravenous administration", "format": "ADME, organism-based", "conditions": "in vivo"}, "[19]": {"system": "Rattus norvegicus", "assay": "Distribution of radio activity in tissues of unfasted male rats was measured as regional uptake at 2 min of time in cerebellum after intravenous administration", "format": "ADME, organism-based", "conditions": "in vivo"}, "[20]": {"system": "Rattus norvegicus", "assay": "Distribution of radio activity in tissues of unfasted male rats was measured as regional uptake at 2 min of time in cortex after intravenous administration", "format": "ADME, organism-based", "conditions": "in vivo"}, "[21]": {"system": "Rattus norvegicus", "assay": "Distribution of radio activity in tissues of unfasted male rats was measured as regional uptake at 2 min of time in hippocampus after intravenous administration", "format": "ADME, organism-based", "conditions": "in vivo"}, "[22]": {"system": "Rattus norvegicus", "assay": "Distribution of radio activity in tissues of unfasted male rats was measured as regional uptake at 2 min of time in striatum after intravenous administration", "format": "ADME, organism-based", "conditions": "in vivo"}, "[23]": {"system": "Rattus norvegicus", "assay": "Distribution of radio activity in tissues of unfasted male rats was measured as regional uptake at 30 min of time in ST/CB after intravenous administration", "format": "ADME, organism-based", "conditions": "in vivo, 0.5 h"}, "[24]": {"system": "Rattus norvegicus", "assay": "Distribution of radio activity in tissues of unfasted male rats was measured as regional uptake at 30 min of time in cerebellum after intravenous administration", "format": "ADME, organism-based", "conditions": "in vivo, 0.5 h"}, "[25]": {"system": "Rattus norvegicus", "assay": "Distribution of radio activity in tissues of unfasted male rats was measured as regional uptake at 30 min of time in cortex after intravenous administration", "format": "ADME, organism-based", "conditions": "in vivo, 0.5 h"}, "[26]": {"system": "Rattus norvegicus", "assay": "Distribution of radio activity in tissues of unfasted male rats was measured as regional uptake at 30 min of time in hippocampus after intravenous administration", "format": "ADME, organism-based", "conditions": "in vivo, 0.5 h"}, "[27]": {"system": "Rattus norvegicus", "assay": "Distribution of radio activity in tissues of unfasted male rats was measured as regional uptake at 30 min of time in striatum after intravenous administration", "format": "ADME, organism-based", "conditions": "in vivo, 0.5 h"}, "[28]": {"system": "Rattus norvegicus", "assay": "Distribution of radio activity in tissues of unfasted male rats was measured as regional uptake at 60 min of time in ST/CB after intravenous administration", "format": "ADME, organism-based", "conditions": "in vivo, 1 h"}, "[29]": {"system": "Rattus norvegicus", "assay": "Distribution of radio activity in tissues of unfasted male rats was measured as regional uptake at 60 min of time in cerebellum after intravenous administration", "format": "ADME, organism-based", "conditions": "in vivo, 1 h"}, "[30]": {"system": "Rattus norvegicus", "assay": "Distribution of radio activity in tissues of unfasted male rats was measured at 2 min of time in spleen after intravenous administration", "format": "ADME, organism-based", "conditions": "in vivo"}, "[31]": {"system": "Rattus norvegicus", "assay": "Distribution of radio activity in tissues of unfasted male rats was measured at 2 min of time in liver after intravenous administration", "format": "ADME, organism-based", "conditions": "in vivo"}},
  "data": [
    {"smiles": "COC(=O)C1C(c2ccc(Cl)cc2)CC2CCC1N2C/C=C\\I", "note": "(stereo unspecified)", "values": [
      {"measurement": "Injected dose/organ", "setting": "[1]", "result": 5.77, "unit": "%"},
      {"measurement": "Injected dose/organ", "setting": "[2]", "result": 0.07, "unit": "%"},
      {"measurement": "Injected dose/organ", "setting": "[3]", "result": 0.16, "unit": "%"},
      {"measurement": "Injected dose/organ", "setting": "[4]", "result": 0.56, "unit": "%"},
      {"measurement": "Injected dose/organ", "setting": "[5]", "result": 1.6, "unit": "%"},
      {"measurement": "Injected dose/organ", "setting": "[6]", "result": 0.5, "unit": "%"},
      {"measurement": "Injected dose/organ", "setting": "[7]", "result": 12.22, "unit": "%"},
      {"measurement": "Injected dose/organ", "setting": "[8]", "result": 0.08, "unit": "%"},
      {"measurement": "Injected dose/organ", "setting": "[9]", "result": 8, "unit": "%"},
      {"measurement": "Injected dose/organ", "setting": "[10]", "result": 0.21, "unit": "%"},
      {"measurement": "Injected dose/organ", "setting": "[11]", "result": 0.22, "unit": "%"},
      {"measurement": "Injected dose/organ", "setting": "[12]", "result": 24.81, "unit": "%"},
      {"measurement": "Injected dose/organ", "setting": "[13]", "result": 0.11, "unit": "%"},
      {"measurement": "Injected dose/organ", "setting": "[14]", "result": 0.94, "unit": "%"},
      {"measurement": "Dose/g", "setting": "[15]", "result": 0.03, "unit": "%"},
      {"measurement": "Dose/g", "setting": "[16]", "result": 0.03, "unit": "%"},
      {"measurement": "Dose/g", "setting": "[17]", "result": 0.05, "unit": "%"},
      {"measurement": "Dose/g", "setting": "[18]", "result": 1.12, "unit": "%"},
      {"measurement": "Dose/g", "setting": "[19]", "result": 0.82, "unit": "%"},
      {"measurement": "Dose/g", "setting": "[20]", "result": 0.91, "unit": "%"},
      {"measurement": "Dose/g", "setting": "[21]", "result": 0.69, "unit": "%"},
      {"measurement": "Dose/g", "setting": "[22]", "result": 0.92, "unit": "%"},
      {"measurement": "Dose/g", "setting": "[23]", "result": 3, "unit": "%"},
      {"measurement": "Dose/g", "setting": "[24]", "result": 0.19, "unit": "%"},
      {"measurement": "Dose/g", "setting": "[25]", "result": 0.11, "unit": "%"},
      {"measurement": "Dose/g", "setting": "[26]", "result": 0.12, "unit": "%"},
      {"measurement": "Dose/g", "setting": "[27]", "result": 0.33, "unit": "%"},
      {"measurement": "Dose/g", "setting": "[28]", "result": 2.7, "unit": "%"},
      {"measurement": "Dose/g", "setting": "[29]", "result": 0.04, "unit": "%"},
      {"measurement": "Injected dose/organ", "setting": "[30]", "result": 0.4, "unit": "%"},
      {"measurement": "Injected dose/organ", "setting": "[31]", "result": 12.13, "unit": "%"}
    ]}
  ]
}
